In PubChem BioAssay (NCI):
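Five compound concentrations were applied to cells in 96-well plates for 48 hours; endpoints were derived by simple linear interpolation of the resulting dose-response curve. The concentration for 50% growth inhibition is given as GI50. The concentration for full growth arrest is given as TGI.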

Columns and labels:
Experiment in all cases: NCI-60 cell line screen, 48 h
SF-295 CNS = tested on: SF-295 CNS
UO-31 renal = tested on: UO-31 renal
SK-MEL-5 melanoma = tested on: SK-MEL-5 melanoma
ACHN renal = tested on: ACHN renal
LOX IMVI melanoma = tested on: LOX IMVI melanoma
RXF 393 renal = tested on: RXF 393 renal
CCRF-CEM leukemia = tested on: CCRF-CEM leukemia
EKVX NSCLC = tested on: EKVX NSCLC
TK-10 renal = tested on: TK-10 renal
NCI/ADR-RES ovarian = tested on: NCI/ADR-RES ovarian
SK-MEL-2 melanoma = tested on: SK-MEL-2 melanoma
SF-268 CNS = tested on: SF-268 CNS
NCI-H522 lung = tested on: NCI-H522 lung
SK-MEL-28 melanoma = tested on: SK-MEL-28 melanoma
A549 NSCLC = tested on: A549 NSCLC
SR leukemia = tested on: SR leukemia
MDA-MB-231 breast = tested on: MDA-MB-231 breast
OVCAR-5 ovarian = tested on: OVCAR-5 ovarian
BT-549 breast = tested on: BT-549 breast
SK-OV-3 ovarian = tested on: SK-OV-3 ovarian
RPMI-8226 leukemia = tested on: RPMI-8226 leukemia
MALME-3M melanoma = tested on: MALME-3M melanoma
K-562 leukemia = tested on: K-562 leukemia
NCI-H23 lung = tested on: NCI-H23 lung
MCF7 breast = tested on: MCF7 breast
HCT-116 colon = tested on: HCT-116 colon
SW-620 colon = tested on: SW-620 colon
IGROV1 ovarian = tested on: IGROV1 ovarian
HCT-15 colon = tested on: HCT-15 colon
SF-539 CNS = tested on: SF-539 CNS
SN12C renal = tested on: SN12C renal
DU-145 prostate = tested on: DU-145 prostate
MOLT-4 leukemia = tested on: MOLT-4 leukemia
PC-3 prostate = tested on: PC-3 prostate
SNB-19 CNS = tested on: SNB-19 CNS
NCI-H460 lung = tested on: NCI-H460 lung
OVCAR-8 ovarian = tested on: OVCAR-8 ovarian
HCC-2998 colon = tested on: HCC-2998 colon
OVCAR-4 ovarian = tested on: OVCAR-4 ovarian
T-47D breast = tested on: T-47D breast
MDA-MB-435 = tested on: MDA-MB-435
COLO 205 colon = tested on: COLO 205 colon
M14 melanoma = tested on: M14 melanoma
OVCAR-3 ovarian = tested on: OVCAR-3 ovarian
NCI-H226 lung = tested on: NCI-H226 lung
HOP-92 NSCLC = tested on: HOP-92 NSCLC
HS 578T breast = tested on: HS 578T breast
HOP-62 NSCLC = tested on: HOP-62 NSCLC
CAKI-1 renal = tested on: CAKI-1 renal
UACC-62 melanoma = tested on: UACC-62 melanoma
UACC-257 melanoma = tested on: UACC-257 melanoma
SNB-75 CNS = tested on: SNB-75 CNS
786-0 renal = tested on: 786-0 renal
A498 renal = tested on: A498 renal
HL-60(TB) leukemia = tested on: HL-60(TB) leukemia
KM12 colon = tested on: KM12 colon

## OCCNc1nc(NCCO)nc(Nc2ccc(C3=NN(c4cc(Cl)cc(Cl)c4)C(c4ccc(C(F)(F)F)cc4)C3)cc2)n1 (configuration not stated)
SF-295 CNS
  GI50: 1.36 µM
  TGI: 2.71 µM
UO-31 renal
  GI50: 1.55 µM
  TGI: 2.92 µM
SK-MEL-5 melanoma
  GI50: 1.72 µM
  TGI: 3.11 µM
ACHN renal
  GI50: 1.37 µM
  TGI: 2.66 µM
LOX IMVI melanoma
  GI50: 1.56 µM
  TGI: 2.97 µM

## Cc1c(C(=O)N/N=C/c2ccc(Cl)cc2)nnn1-c1ccnc2c(C(F)(F)F)cccc12
RXF 393 renal
  GI50: 3.06 µM
  TGI: 11.2 µM
CCRF-CEM leukemia
  GI50: 14.8 µM
  TGI: > 100 µM
EKVX NSCLC
  GI50: 25.3 µM
  TGI: > 100 µM
TK-10 renal
  GI50: 2.6 µM
  TGI: 8.93 µM
NCI/ADR-RES ovarian
  GI50: 3.86 µM
  TGI: 13.8 µM
SK-MEL-2 melanoma
  GI50: 18.1 µM
  TGI: 54.9 µM
SF-268 CNS
  GI50: 11.7 µM
  TGI: 28.2 µM
NCI-H522 lung
  GI50: 11.8 µM
  TGI: 35.2 µM
SK-MEL-28 melanoma
  GI50: 14.4 µM
  TGI: 38.5 µM
A549 NSCLC
  GI50: 2.1 µM
  TGI: 4.63 µM
SR leukemia
  GI50: 3.6 µM
  TGI: 12.3 µM
MDA-MB-231 breast
  GI50: 2.17 µM
  TGI: 6.08 µM
OVCAR-5 ovarian
  GI50: 15.6 µM
  TGI: 36.9 µM
BT-549 breast
  GI50: 22.9 µM
  TGI: 52.3 µM
SK-OV-3 ovarian
  GI50: 11.6 µM
  TGI: 25.2 µM
RPMI-8226 leukemia
  GI50: 4.2 µM
  TGI: 31.1 µM
MALME-3M melanoma
  GI50: 1.53 µM
  TGI: 4.4 µM
SF-295 CNS
  GI50: 1.82 µM
  TGI: 4.01 µM
K-562 leukemia
  GI50: 5.74 µM
  TGI: 42.2 µM
NCI-H23 lung
  GI50: 13.5 µM
  TGI: 35.9 µM
MCF7 breast
  GI50: 2.27 µM
  TGI: 5.61 µM
HCT-116 colon
  GI50: 2.31 µM
  TGI: 5.42 µM
SW-620 colon
  GI50: 5.09 µM
  TGI: 47.6 µM
IGROV1 ovarian
  GI50: 9.06 µM
  TGI: 37 µM
HCT-15 colon
  GI50: 2.88 µM
  TGI: 16.3 µM
UO-31 renal
  GI50: 13 µM
  TGI: 27.8 µM
SF-539 CNS
  GI50: 12.6 µM
  TGI: 25.8 µM
SN12C renal
  GI50: 3.51 µM
  TGI: 15.5 µM
DU-145 prostate
  GI50: 4.89 µM
  TGI: 20.5 µM
SK-MEL-5 melanoma
  GI50: 28.4 µM
  TGI: > 100 µM
MOLT-4 leukemia
  GI50: 6.39 µM
  TGI: 35.3 µM
PC-3 prostate
  GI50: 3.04 µM
  TGI: 11.3 µM
SNB-19 CNS
  GI50: 12.1 µM
  TGI: 30.2 µM
NCI-H460 lung
  GI50: 4.49 µM
  TGI: 15.8 µM
OVCAR-8 ovarian
  GI50: 2.25 µM
  TGI: 4.71 µM
HCC-2998 colon
  GI50: 9.54 µM
  TGI: 53.1 µM
OVCAR-4 ovarian
  GI50: 2.9 µM
  TGI: 6.08 µM
T-47D breast
  GI50: 7.59 µM
  TGI: 28.9 µM
MDA-MB-435
  GI50: 4.46 µM
  TGI: 21.3 µM
COLO 205 colon
  GI50: 1.55 µM
  TGI: 3.58 µM
M14 melanoma
  GI50: 4.45 µM
  TGI: 18.9 µM
OVCAR-3 ovarian
  GI50: 12 µM
  TGI: 26.4 µM
NCI-H226 lung
  GI50: 2.77 µM
  TGI: 8.32 µM
HOP-92 NSCLC
  GI50: 3.62 µM
  TGI: 16.2 µM
HS 578T breast
  GI50: 3.62 µM
  TGI: 12 µM
ACHN renal
  GI50: 2.02 µM
  TGI: 3.95 µM
HOP-62 NSCLC
  GI50: 5.01 µM
  TGI: 17.3 µM
CAKI-1 renal
  GI50: 17.6 µM
  TGI: 45.1 µM
UACC-62 melanoma
  GI50: 10.6 µM
  TGI: 28.4 µM
UACC-257 melanoma
  GI50: 2.89 µM
  TGI: 6.91 µM
LOX IMVI melanoma
  GI50: 1.69 µM
  TGI: 3.18 µM
SNB-75 CNS
  GI50: 2.63 µM
  TGI: 5.18 µM
786-0 renal
  GI50: 18.5 µM
  TGI: 37.8 µM
A498 renal
  GI50: 15.9 µM
  TGI: 45.1 µM
HL-60(TB) leukemia
  GI50: 6.39 µM
  TGI: 48 µM
KM12 colon
  GI50: 8.94 µM
  TGI: 41.7 µM
